Values of other authors in US20250082708A1, “HERBAL COMPOSITION FOR USE IN THE TREATMENT OR PREVENTION OF POSTPARTUM DEPRESSION” (CRISTALFARMA S.R.L., priority 2022, published 2025).

System: women with postpartum depression
Details: 8 weeks treatment; Amini et al.

Question: Which “reduction of EPDS questionnaire score with respect to baseline, versus placebo control group” value does the source give for vitamin D here?
Answer: The value was “greater reduction”.
